Assays:
Assay in all cases: Post-emergence test, weed control effect
Type in all cases: in vivo
Settings in all cases: after 3 weeks
Amaranthus retroflexus = system: Amaranthus retroflexus
Method in brief: (§1)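 Activity is expressed as a level from 0 (no effect) to 10 (plant dead), each step matching a further 10% fresh-weight inhibition, assessed 3 weeks post-treatment. Treatment: spray at 2-3 leaf stage of pot-grown plants, compound in acetone, Tween-80 and water with 80% vegetable oil methyl ester synergist at 1500 g/ha.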

Chenopodiaceae = system: Chenopodiaceae
Method in brief: as §1

Rorippa indica = system: Rorippa indica
Method in brief: as §1

Veronica polita = system: Veronica polita
Method in brief: as §1

Cc1cc(-c2nnc(C(F)(F)F)cc2O)cnc1F [Compound 219]
10: weed control effect (activity level), Amaranthus retroflexus (Amaranthus retroflexus; dose 2000 g/ha) | weed control effect (activity level), Chenopodiaceae (Chenopodiaceae; dose 2000 g/ha) | weed control effect (activity level), Rorippa indica (Rorippa indica; dose 2000 g/ha) | weed control effect (activity level), Veronica polita (Veronica polita; dose 2000 g/ha)

CCc1cc(-c2nnc(C(F)(F)F)cc2O)c(F)cc1[N+](=O)[O-] [Compound 179]
10: weed control effect (activity level), Amaranthus retroflexus (Amaranthus retroflexus; dose 2000 g/ha) | weed control effect (activity level), Chenopodiaceae (Chenopodiaceae; dose 2000 g/ha) | weed control effect (activity level), Rorippa indica (Rorippa indica; dose 2000 g/ha) | weed control effect (activity level), Veronica polita (Veronica polita; dose 2000 g/ha)

Oc1cc(C(F)(F)F)nnc1-c1ccccc1Cl [Compound 30]
10: weed control effect (activity level), Amaranthus retroflexus (Amaranthus retroflexus; dose 1000 g/ha) | weed control effect (activity level), Chenopodiaceae (Chenopodiaceae; dose 1000 g/ha) | weed control effect (activity level), Rorippa indica (Rorippa indica; dose 1000 g/ha) | weed control effect (activity level), Veronica polita (Veronica polita; dose 1000 g/ha)

CCSC(=O)Oc1cc(C(F)(F)F)nnc1-c1ccc(F)c(F)c1 [Compound 1-42]
10: weed control effect, Amaranthus retroflexus (activity level) (Amaranthus retroflexus; Dose 3000 g/ha) | weed control effect, Chenopodiaceae (activity level) (Chenopodiaceae; Dose 3000 g/ha) | weed control effect, Rorippa indica (activity level) (Rorippa indica; Dose 3000 g/ha) | weed control effect, Veronica polita (activity level) (Veronica polita; Dose 3000 g/ha)

O=C(Oc1cc(C(F)(F)F)nnc1-c1ccccc1)SC1CCCCC1 [Compound 1-58]
10: weed control effect, Amaranthus retroflexus (activity level) (Amaranthus retroflexus; Dose 3000 g/ha) | weed control effect, Chenopodiaceae (activity level) (Chenopodiaceae; Dose 3000 g/ha) | weed control effect, Rorippa indica (activity level) (Rorippa indica; Dose 3000 g/ha) | weed control effect, Veronica polita (activity level) (Veronica polita; Dose 3000 g/ha)

O=Cc1c(F)cccc1-c1nnc(C(F)(F)F)cc1O [Compound 63]
10: weed control effect (activity level), Amaranthus retroflexus (Amaranthus retroflexus; dose 1000 g/ha) | weed control effect (activity level), Chenopodiaceae (Chenopodiaceae; dose 1000 g/ha) | weed control effect (activity level), Rorippa indica (Rorippa indica; dose 1000 g/ha) | weed control effect (activity level), Veronica polita (Veronica polita; dose 1000 g/ha)

Oc1cc(C(F)(F)F)nnc1-c1cc(F)cnc1Cl [Compound 1004]
10: weed control effect (activity level), Amaranthus retroflexus (Amaranthus retroflexus; Dose 3000 g/ha) | weed control effect (activity level), Chenopodiaceae (Chenopodiaceae; Dose 3000 g/ha) | weed control effect (activity level), Rorippa indica (Rorippa indica; Dose 3000 g/ha) | weed control effect (activity level), Veronica polita (Veronica polita; Dose 3000 g/ha)

Cc1ccc(-c2nnc(C(F)(F)F)cc2O)c(C)c1 [Compound 77]
10: weed control effect (activity level), Amaranthus retroflexus (Amaranthus retroflexus; dose 2000 g/ha) | weed control effect (activity level), Chenopodiaceae (Chenopodiaceae; dose 2000 g/ha) | weed control effect (activity level), Rorippa indica (Rorippa indica; dose 2000 g/ha) | weed control effect (activity level), Veronica polita (Veronica polita; dose 2000 g/ha)

CCCCCCCCC(=O)Oc1cc(C(F)(F)F)nnc1-c1cccc(Br)c1 [Compound 1-15]
10: weed control effect, Amaranthus retroflexus (activity level) (Amaranthus retroflexus; Dose 3000 g/ha) | weed control effect, Chenopodiaceae (activity level) (Chenopodiaceae; Dose 3000 g/ha) | weed control effect, Rorippa indica (activity level) (Rorippa indica; Dose 3000 g/ha) | weed control effect, Veronica polita (activity level) (Veronica polita; Dose 3000 g/ha)

CCO/C=C/C(=O)Oc1cc(C(F)(F)F)nnc1-c1cccc(F)c1 [Compound 1-75]
10: weed control effect, Amaranthus retroflexus (activity level) (Amaranthus retroflexus; Dose 3000 g/ha) | weed control effect, Chenopodiaceae (activity level) (Chenopodiaceae; Dose 3000 g/ha) | weed control effect, Rorippa indica (activity level) (Rorippa indica; Dose 3000 g/ha) | weed control effect, Veronica polita (activity level) (Veronica polita; Dose 3000 g/ha)

O=S(=O)(Oc1cc(C(F)(F)F)nnc1-c1ccc(F)cc1)c1ccc(Cl)cc1Cl [Compound 1-133]
10: weed control effect, Amaranthus retroflexus (activity level) (Amaranthus retroflexus; Dose 3000 g/ha) | weed control effect, Chenopodiaceae (activity level) (Chenopodiaceae; Dose 3000 g/ha) | weed control effect, Rorippa indica (activity level) (Rorippa indica; Dose 3000 g/ha) | weed control effect, Veronica polita (activity level) (Veronica polita; Dose 3000 g/ha)

CCC/C=N\Oc1cc(C(F)(F)F)nnc1-c1ccc(F)cc1 [Compound 1-172]
10: weed control effect, Amaranthus retroflexus (activity level) (Amaranthus retroflexus; Dose 3000 g/ha) | weed control effect, Chenopodiaceae (activity level) (Chenopodiaceae; Dose 3000 g/ha) | weed control effect, Rorippa indica (activity level) (Rorippa indica; Dose 3000 g/ha) | weed control effect, Veronica polita (activity level) (Veronica polita; Dose 3000 g/ha)

O=C(Oc1cc(C(F)(F)F)nnc1-c1ccc(F)cc1)c1cccc2ccsc12 [Compound 1-119]
10: weed control effect, Amaranthus retroflexus (activity level) (Amaranthus retroflexus; Dose 3000 g/ha) | weed control effect, Chenopodiaceae (activity level) (Chenopodiaceae; Dose 3000 g/ha) | weed control effect, Rorippa indica (activity level) (Rorippa indica; Dose 3000 g/ha) | weed control effect, Veronica polita (activity level) (Veronica polita; Dose 3000 g/ha)

CC(=O)Oc1cc(C(F)(F)F)nnc1-c1cccc(F)c1 [Compound 1-1]
10: weed control effect, Amaranthus retroflexus (activity level) (Amaranthus retroflexus; Dose 3000 g/ha) | weed control effect, Chenopodiaceae (activity level) (Chenopodiaceae; Dose 3000 g/ha) | weed control effect, Rorippa indica (activity level) (Rorippa indica; Dose 3000 g/ha) | weed control effect, Veronica polita (activity level) (Veronica polita; Dose 3000 g/ha)

Oc1cc(C(F)(F)F)nnc1-c1c(F)ccc(F)c1F [Compound 54]
10: weed control effect (activity level), Amaranthus retroflexus (Amaranthus retroflexus; dose 1000 g/ha) | weed control effect (activity level), Chenopodiaceae (Chenopodiaceae; dose 1000 g/ha) | weed control effect (activity level), Rorippa indica (Rorippa indica; dose 1000 g/ha) | weed control effect (activity level), Veronica polita (Veronica polita; dose 1000 g/ha)

O=C(Oc1cc(C(F)(F)F)nnc1-c1ccc(Cl)cc1)c1ccccc1Cl [Compound 1-83]
10: weed control effect, Amaranthus retroflexus (activity level) (Amaranthus retroflexus; Dose 3000 g/ha) | weed control effect, Chenopodiaceae (activity level) (Chenopodiaceae; Dose 3000 g/ha) | weed control effect, Rorippa indica (activity level) (Rorippa indica; Dose 3000 g/ha) | weed control effect, Veronica polita (activity level) (Veronica polita; Dose 3000 g/ha)

Cc1ccc(-c2nnc(C(F)(F)F)cc2O)cc1F [Compound 56]
10: weed control effect (activity level), Amaranthus retroflexus (Amaranthus retroflexus; dose 1000 g/ha) | weed control effect (activity level), Chenopodiaceae (Chenopodiaceae; dose 1000 g/ha) | weed control effect (activity level), Rorippa indica (Rorippa indica; dose 1000 g/ha) | weed control effect (activity level), Veronica polita (Veronica polita; dose 1000 g/ha)

CN1CCN(S(=O)(=O)Oc2cc(C(F)(F)F)nnc2-c2ccc(F)cc2)CC1 [Compound 1-125]
10: weed control effect, Amaranthus retroflexus (activity level) (Amaranthus retroflexus; Dose 3000 g/ha) | weed control effect, Chenopodiaceae (activity level) (Chenopodiaceae; Dose 3000 g/ha) | weed control effect, Rorippa indica (activity level) (Rorippa indica; Dose 3000 g/ha) | weed control effect, Veronica polita (activity level) (Veronica polita; Dose 3000 g/ha)

Source: patent publication US12568972B2, “Pyridazinol compounds and derivatives, preparation methods, herbicidal compositions and applications thereof” (Qingdao Kingagroot Chemical Compound Co., Ltd., priority 2018, dated 2026)
